Test results reported in patent US20110288154A1, “RNA Interference Mediated Inhibition of Epithelial Sodium Channel (ENaC) Gene Expression Using Short Interfering Nucleic Acid (siNA)” (MERCK & CO., INC., priority 2008, published 2011).
[invAb] = inverted abasic unit; m = 2'-O-methyl; r = 2'-OH (RNA); f = 2'-fluoro

How the values were obtained:
[1] = tested on: mSCNN1A mRNA; assay: Screening of ENaCα siNAs in mouse NIH 3T3 cells (quantitative RT-PCR); type: cell-based; set-up: Percent Reduction of the mSCNN1A mRNA relative to a non-targeting control siNA / Mouse % KD (efficacy of ENaCα mRNA knockdown): concentration or dose not given beside the values; settings: for Mean (mSCNN1A expression normalized to the level of m36B4) / Percent Reduction of the mSCNN1A mRNA relative to a non-targeting control siNA / Avg ENaCα Expression (mSCNN1A) / Avg 36B4 Expression: mouse NIH 3T3 cells, n = 3; for Mean (mSCNN1A expression normalized to the level of m36B4) / Percent Reduction of the mSCNN1A mRNA relative to a non-targeting control siNA / Avg 36B4 Expression: 24 hours post-transfection; for Avg ENaCα Expression (mSCNN1A): harvested 24 hours post-transfection; for Avg 36B4 Expression: housekeeping gene used for normalisation
Summary of the method: (§1)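 Rat H-4-II-E and mouse NIH 3T3 cells transfected with siNA–Lipofectamine 2000 complexes (25 nM siNA final; dose-response at constant lipid), screened at 24 h. qRT-PCR with ENaCα signal normalized to GAPDH or 36B4; % knockdown relative to non-targeting control siNA, triplicates; IC50 from sigmoidal variable-slope fit.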

[2] = tested on: rSCNN1A (r ENaCα) mRNA; assay: Screening of ENaCα siNAs in Rat H-4-II-E cells (quantitative RT-PCR); type: cell-based; set-up: Percent Reduction of the r ENaCα mRNA relative to a non-targeting control siNA (NTCs) / Rat % KD (efficacy of ENaCα mRNA knockdown): concentration or dose not given beside the values; settings: for Mean (rSCNN1A expression normalized to the level of rGAPDH) / Percent Reduction of the r ENaCα mRNA relative to a non-targeting control siNA (NTCs) / Avg ENaCα Expression (rSCNN1A) / Avg GAPDH Expression (rGAPDH): Rat H-4-II-E cells, n = 3; for Mean (rSCNN1A expression normalized to the level of rGAPDH) / Percent Reduction of the r ENaCα mRNA relative to a non-targeting control siNA (NTCs) / Avg GAPDH Expression (rGAPDH): 24 hours post-transfection; for Avg ENaCα Expression (rSCNN1A): harvested 24 hours post-transfection; for Avg GAPDH Expression (rGAPDH): housekeeping gene used for normalisation
Summary of the method: as §1

B uccuGuccAAccuGGGcAG TTB / CUGcccAGGuuGGAcAGGAUU (sense UCCUGUCCAACCUGGGCAGTT; antisense CUGCCCAGGUUGGACAGGAUU; siRNA; sense: DNA at AGT, 2'-fluoro at CU, [invAb] at 5' end, 3' end, backbone not given here; antisense: sugars from the 5' end rrrfffmmmffmmmfmmmmmm, backbone not given here) [Site 1739]
Mean (mSCNN1A expression normalized to the level of m36B4) [1]: 0.13 | Percent Reduction of the mSCNN1A mRNA relative to a non-targeting control siNA [1]: 7.3% | Avg ENaCα Expression (mSCNN1A) [1]: 2.87 | Avg 36B4 Expression [1]: 22.65 | Mean (rSCNN1A expression normalized to the level of rGAPDH) [2]: 1.00 | Percent Reduction of the r ENaCα mRNA relative to a non-targeting control siNA (NTCs) [2]: −8.7% | Avg ENaCα Expression (rSCNN1A) [2]: 32.26 | Avg GAPDH Expression (rGAPDH) [2]: 35.80

B uuAuGGAuGAuGGuGGcuu TTB / AAGccAccAucAuccAuAAUU (sense UUAUGGAUGAUGGUGGCUUTT; antisense AAGCCACCAUCAUCCAUAAUU; siRNA; B caps on sense ends, letter-case modifications not given here, further chemistry not given here) [Site 1181]
Mean (mSCNN1A expression normalized to the level of m36B4) [1]: 0.04 | Percent Reduction of the mSCNN1A mRNA relative to a non-targeting control siNA [1]: 84.4% | Avg ENaCα Expression (mSCNN1A) [1]: 0.54 | Avg 36B4 Expression [1]: 15.48 | IC50 ([1]; mouse cell line, dose response, read-out: Mouse IC50 (potency of ENaCα mRNA knockdown)): 4.1 nM | Mouse % KD (efficacy of ENaCα mRNA knockdown) ([1]; mouse cell line, summary): 84% | Mean (rSCNN1A expression normalized to the level of rGAPDH) [2]: 0.41 | Percent Reduction of the r ENaCα mRNA relative to a non-targeting control siNA (NTCs) [2]: 68.1% | Avg ENaCα Expression (rSCNN1A) [2]: 10.34 | Avg GAPDH Expression (rGAPDH) [2]: 24.78 | IC50 ([2]; rat cell line, dose response, read-out: Rat IC50 (potency of ENaCα mRNA knockdown)): 1 nM | Rat % KD (efficacy of ENaCα mRNA knockdown) ([2]; rat cell line, summary): 68%
